“Also recorded” adds a separate entry of the source. Positions of bridges follow the written chain, without caps; N, C: chain ends. Non-standard residues stand in square brackets, D forms with d. Residues, ends and D or L forms follow the SMILES beside them. Chains are numbered I, II in the order given. Gly(N-piperonyl) = O=C(O)CNCc1ccc2c(c1)OCO2; N(4-MeOBn)Gly = COc1ccc(CNCC(=O)O)cc1; Nrpe = C[C@@H](NCC(=O)O)c1ccccc1; Nlys = NCCCCNCC(=O)O
Experiments:
[1] = Membrane lipid array (lipid dot blot); type: binding
Experimental: (FIGS. 11A and 11B). […] All of the bound lipids PS, PA, PI and PG have an overall negative charge as compared to unbound PC, PE and SM, which are neutral. This extra negative charge is responsible for interacting with positively charged region of PPS1, while the hydrophobic regions of both PPS1 and lipids may interact through van der Waals forces. […] The membrane was first blocked with 3% BSA in TBS-T for 1 hr. After washing with TBS-T, 2.5 μg/ml of biotin labeled PPS1D1 was added. Binding of biotin-PPS1D1 was detected by immunoblotting with streptavidin-HRP antibody. […] The binding affinity of PPS1D1 to PS appears to be strongest among all phospholipids as even at low lipid concentrations, PPS1D1 efficiently binds to it. (FIG. 11D). […] It is well documented that these phospholipids are predominantly present in the inner leaflet in normal cells. […] PC, PE, SM and PS are the most abundant phospholipids. Among these, only PS is an anionic phospholipid. PC and SM are present mostly in the outer leaflet, whereas PE and PS occupy most of inner leaflet with a variety of other anionic phospholipids. However, in stress conditions and in most tumor studied to date, PS and PE flip to the outer leaflet. PPS1D1 has six positively charged residues along with a hydrophobic region. […] However the binding affinity of PPSD1 to these anionic phospholipids is different. […] PPS1D1 could have a structure beyond a simple linear sequence contributing various levels of binding to PS, PA, PI and PG, maintaining highest binding affinity to PS.
Membrane lipid array: Membrane lipid arrays were purchased from Echelon Biosciences. Membranes were blocked in 3% BSA in TBS-T for one hour then incubated with 2.5 μg/ml of biotin-PPS1D1 for two hours. After washing unbound peptoid using TBS-T, bound biotin-PPS1D1 was detected by immunoblotting with Streptavidin-HRP antibody at 1:750 dilution (BioLegend).
One of the major questions arising at this point is how PPS1 or PPS1D1 specifically recognizes PS over PC, as both lipids have negatively charged phosphate head groups. To address this specificity concern, ELISA-like binding assay were expanded to include other membrane phospholipids such as phosphatidylethanolamine (PE), sphingomyelin (SM), phosphatidic acid (PA), phosphatidylinositol (PI) and phosphatidylglycerol (PG). […] This additional negative charge can be responsible for the interaction with the positively charged region of PPS1 or PPS1D1, while the hydrophobic regions of PPS1 or PPS1D1 may interact with hydrophobic tail groups of the lipids through van der Waals forces. […] The membrane was treated with biotin labeled PPS1D1 and binding was detected by immunoblotting with streptavidin-HRP. […] It has been reported that PS can form a bilayer lamellar and reverse hexagonal phase. PS is mainly in a lamellar phase after hydration at physiological pH. By validating our binding through an ELISA-like assay and liposomes, PPS1D1 has an equal opportunity to bind to each phase of PS.
Membrane lipid arrays were purchased from Echelon Biosciences, UT. Membranes were blocked in 3% BSA in TBST for 1 hour and then incubated with 2.5 μg/ml of biotin-PPS1D1 for 2 hours. Membranes were washed with TBST and incubated with Streptavidin-HRP antibody at 1:750 dilutions (BioLegend,CA). After washing, signal was detected with ECL western blotting substrate (Life technologies, CA) using Fluorchem 8900 (Alpha Innotech Imaging system).

[2] = 2.5 μg/ml biotin labeled PPS1D1
[3] = 2.5 μg/ml biotin labeled PPS1D1, listed as PPSD1

Experimental for H460 cells: Before moving to animal studies with PPS1D1, comprehensive validation of cytotoxic effect of PPS1D1 on H460 was performed (Fig: 13). The PS expression levels of H460 using FITC-Annexin V staining detected by FACS was checked. […] A magnetic bead pull down, cell proliferation assay, and flow cytometry were performed on the H460 cell line. PPS1D1 coated magnetic beads were incubated with the H460 cell line for 30 minutes. The supernatant was removed by immobilizing beads on side of the tube with a magnet. The number of cells bound to beads were counted with a hemocytometer. […] Cell proliferation assays on a H460 cell line were performed by treating them with PPS1D1, PPS1, and the control compound, PC462D1. […] Binding and cytotoxicity of fluoresceinated PPS1D1 was examined using flow cytometry. Efficiency of PPS1D1 cytotoxicity on H460 cancer cells at different concentrations with 1 hour incubation with PPS1D1 was examined. Assays were performed to determine whether there were cells that were double positive for FITC (bound to PPS1D1) and PI, to evaluate cell viability. […]
Experimental procedure 10: MTS viability assay on H460 cells. […] On day 5, 20 μl of CellTiter 96® AQueous One Solution Cell Proliferation Assay (Promega, Wis.) was added to each well and absorbance was measured at 490 nm using a plate reader 2 hours after treatment.

With COc1ccc(CN(CC(=O)N(CCCCN)CC(=O)N[C@@H](CCCCN)C(=O)N[C@H](CCCCN)C(=O)N[C@@H](CCSC)C(=O)NCCCC[C@H](NC(=O)[C@H](CCSC)NC(=O)[C@@H](CCCCN)NC(=O)[C@H](CCCCN)NC(=O)CN(CCCCN)C(=O)CN(Cc2ccc(OC)cc2)C(=O)CN(C(=O)CN(Cc2ccc3c(c2)OCO3)C(=O)CN[C@H](C)c2ccccc2)[C@H](C)c2ccccc2)C(N)=O)C(=O)CN(C(=O)CN(Cc2ccc3c(c2)OCO3)C(=O)CN[C@H](C)c2ccccc2)[C@H](C)c2ccccc2)cc1 [PPS1D1] (I: H-[Nrpe][Gly(N-piperonyl)][Nrpe][N(4-MeOBn)Gly][Nlys]K[dK]MK-NH2 / II: H-[Nrpe][Gly(N-piperonyl)][Nrpe][N(4-MeOBn)Gly][Nlys]K[dK]M; amide I:9-II:C; N-terminus assumed) the “binding to DAG” value [1, 2] was “did not show binding; also recorded: does not bind”, the “binding to PA” value [1, 2] was “a little weaker binding” and the “binding to PC” value [1, 2] was “does not bind”. The “binding to PE” value [1, 2] was “does not bind”, the “binding to PG” value [1, 2] was “weaker binding” and the “binding to PI” value [1, 2] was “weaker binding”. The “binding to PS” value [1, 2] was “strongest binding affinity”, the “binding to SM” value [1, 2] was “does not bind” and the “binding to PC” value [1, 3] was “clearly not binding”. For the same compound, the “binding to PE” value [1, 3] was “clearly not binding”, the “binding to PG” value [1, 3] was “very weak level” and the “binding to PI” value [1, 3] was “very weak level”. For the same compound, the “binding to SM” value [1, 3] was “clearly not binding”, the “effect on H460 cells” value (H460 cells; MTS / cell proliferation, increasing concentrations) was “very potent in inhibiting growth” and the “concentration at which most cytotoxicity was seen” value (H460 cells; cell proliferation assay, H460) was at least 10 µM.
